From ChEMBL document CHEMBL3885881, “DrugMatrix”

Organism: Rattus norvegicus
Experiment: DrugMatrix - Regimen: Daily Repeat
Type: toxicity, organism-based, Sprague-Dawley
Design: regimen Daily Repeat, gender Male, age 6-8 weeks
Conditions: in vivo, po, route oral GAVAGE, vehicle .5 % CMC; for ABSOLUTE BASOPHIL / ABSOLUTE EOSINOPHIL / ABSOLUTE LYMPHOCYTE / ABSOLUTE MONOCYTE / ABSOLUTE SEGMENTED NEUTROPHIL / BASOPHIL / EOSINOPHIL / ERYTHROCYTE COUNT / HEMATOCRIT / HEMOGLOBIN / LEUKOCYTE COUNT / LYMPHOCYTE / MEAN CORPUSCULAR HEMOGLOBIN / MEAN CORPUSCULAR HEMOGLOBIN CONCENTRATION / MEAN CORPUSCULAR VOLUME / MONOCYTE / NEUTROPHIL / NUCLEATED RED BLOOD CELLS / PLATELET COUNT: tissue Blood; for ALANINE AMINOTRANSFERASE / ALBUMIN / ALKALINE PHOSPHATASE / ASPARTATE AMINOTRANSFERASE / BLOOD UREA NITROGEN / CARBON DIOXIDE / CHLORIDE / CHOLESTEROL / CREATINE PHOSPHOKINASE / CREATININE / GLUCOSE / LACTATE DEHYDROGENASE / LIPASE / PHOSPHORUS / POTASSIUM / SODIUM / TOTAL BILIRUBIN / TOTAL PROTEIN / URIC ACID: tissue Plasma
[1] = 0 mg/kg, 72 h, dose level Control, time 3 day
[2] = 0 mg/kg, 120 h, dose level Control, time 5 day
[3] = 50 mg/kg, 72 h, dose level Low, time 3 day

CNC(=C[N+](=O)[O-])NCCSCc1ccc(CN(C)C)o1 [RANITIDINE]
ABSOLUTE BASOPHIL [1]: 0 CELLS/uL | ABSOLUTE EOSINOPHIL [1]: 0 CELLS/uL | ABSOLUTE LYMPHOCYTE [1]: 12269.67 CELLS/uL | ABSOLUTE MONOCYTE [1]: 160.33 CELLS/uL | ABSOLUTE SEGMENTED NEUTROPHIL [1]: 970 CELLS/uL | BASOPHIL [1]: 0% | EOSINOPHIL [1]: 0% | ERYTHROCYTE COUNT [1]: 5.76 x10E6/uL | HEMATOCRIT [1]: 36.57% | HEMOGLOBIN [1]: 14.22 G/DL | LEUKOCYTE COUNT [1]: 13.4 x10E3/uL | LYMPHOCYTE [1]: 91.67% | MEAN CORPUSCULAR HEMOGLOBIN [1]: 24.67 pg | MEAN CORPUSCULAR HEMOGLOBIN CONCENTRATION [1]: 38.85 G/DL | MEAN CORPUSCULAR VOLUME [1]: 63.52 fL | MONOCYTE [1]: 1.17% | NEUTROPHIL [1]: 7.17% | NUCLEATED RED BLOOD CELLS [1]: 0.33 /100WBC | PLATELET COUNT [1]: 1250.83 x10E3/uL | ALANINE AMINOTRANSFERASE [1]: 49.17 u/L | ALBUMIN [1]: 4.33 G/DL | ALKALINE PHOSPHATASE [1]: 378.5 u/L | ASPARTATE AMINOTRANSFERASE [1]: 82.17 u/L | BLOOD UREA NITROGEN [1]: 15 mg/dL | CARBON DIOXIDE [1]: 34.33 mmol/L | CHLORIDE [1]: 99.17 MEQ/L | CHOLESTEROL [1]: 71.17 mg/dL | CREATINE PHOSPHOKINASE [1]: 258.67 u/L | CREATININE [1]: 0.18 mg/dL | GLUCOSE [1]: 142.67 mg/dL | LACTATE DEHYDROGENASE [1]: 154.33 u/L | LIPASE [1]: 9 u/L | PHOSPHORUS [1]: 11.67 mg/dL | POTASSIUM [1]: 7.13 MEQ/L | SODIUM [1]: 142.22 MEQ/L | TOTAL BILIRUBIN [1]: 0.18 mg/dL | TOTAL PROTEIN [1]: 5.77 G/DL | URIC ACID [1]: 1.55 mg/dL | ABSOLUTE BASOPHIL [2]: 0 CELLS/uL | ABSOLUTE EOSINOPHIL [2]: 23.33 CELLS/uL | ABSOLUTE LYMPHOCYTE [2]: 14943.67 CELLS/uL | ABSOLUTE MONOCYTE [2]: 32 CELLS/uL | ABSOLUTE SEGMENTED NEUTROPHIL [2]: 1084.33 CELLS/uL | BASOPHIL [2]: 0% | EOSINOPHIL [2]: 0.17% | ERYTHROCYTE COUNT [2]: 5.71 x10E6/uL | HEMATOCRIT [2]: 35.28% | HEMOGLOBIN [2]: 14.27 G/DL | LEUKOCYTE COUNT [2]: 16.08 x10E3/uL | LYMPHOCYTE [2]: 93% | MEAN CORPUSCULAR HEMOGLOBIN [2]: 25.02 pg | MEAN CORPUSCULAR HEMOGLOBIN CONCENTRATION [2]: 40.43 G/DL | MEAN CORPUSCULAR VOLUME [2]: 61.82 fL | MONOCYTE [2]: 0.17% | NEUTROPHIL [2]: 6.67% | NUCLEATED RED BLOOD CELLS [2]: 0.33 /100WBC | PLATELET COUNT [2]: 1274 x10E3/uL | ALANINE AMINOTRANSFERASE [2]: 54.17 u/L | ALBUMIN [2]: 4.22 G/DL | ALKALINE PHOSPHATASE [2]: 373.17 u/L | ASPARTATE AMINOTRANSFERASE [2]: 81.83 u/L | BLOOD UREA NITROGEN [2]: 16.67 mg/dL | CARBON DIOXIDE [2]: 30.33 mmol/L | CHLORIDE [2]: 99 MEQ/L | CHOLESTEROL [2]: 71 mg/dL | CREATINE PHOSPHOKINASE [2]: 273.5 u/L | CREATININE [2]: 0.22 mg/dL | GLUCOSE [2]: 141.83 mg/dL | LACTATE DEHYDROGENASE [2]: 153.67 u/L | LIPASE [2]: 10.33 u/L | PHOSPHORUS [2]: 11.38 mg/dL | POTASSIUM [2]: 7.08 MEQ/L | SODIUM [2]: 142.75 MEQ/L | TOTAL BILIRUBIN [2]: 0.18 mg/dL | TOTAL PROTEIN [2]: 6.1 G/DL | URIC ACID [2]: 1.67 mg/dL | ABSOLUTE BASOPHIL [3]: 0 CELLS/uL | ABSOLUTE EOSINOPHIL [3]: 82.33 CELLS/uL | ABSOLUTE LYMPHOCYTE [3]: 12453.33 CELLS/uL | ABSOLUTE MONOCYTE [3]: 303 CELLS/uL | ABSOLUTE SEGMENTED NEUTROPHIL [3]: 1061.33 CELLS/uL | BASOPHIL [3]: 0% | EOSINOPHIL [3]: 0.67% | ERYTHROCYTE COUNT [3]: 5.58 x10E6/uL | HEMATOCRIT [3]: 36.1% | HEMOGLOBIN [3]: 14.47 G/DL | LEUKOCYTE COUNT [3]: 13.9 x10E3/uL | LYMPHOCYTE [3]: 89.67% | MEAN CORPUSCULAR HEMOGLOBIN [3]: 25.9 pg | MEAN CORPUSCULAR HEMOGLOBIN CONCENTRATION [3]: 40.1 G/DL | MEAN CORPUSCULAR VOLUME [3]: 64.73 fL | MONOCYTE [3]: 2% | NEUTROPHIL [3]: 7.67% | NUCLEATED RED BLOOD CELLS [3]: 0.33 /100WBC | PLATELET COUNT [3]: 1180.67 x10E3/uL | ALANINE AMINOTRANSFERASE [3]: 50.67 u/L | ALBUMIN [3]: 4.17 G/DL | ALKALINE PHOSPHATASE [3]: 358 u/L | ASPARTATE AMINOTRANSFERASE [3]: 90.67 u/L | BLOOD UREA NITROGEN [3]: 16.33 mg/dL | CARBON DIOXIDE [3]: 27.33 mmol/L | CHLORIDE [3]: 101.33 MEQ/L | CHOLESTEROL [3]: 81.67 mg/dL | CREATINE PHOSPHOKINASE [3]: 304 u/L | CREATININE [3]: 0.2 mg/dL | GLUCOSE [3]: 157.33 mg/dL | LACTATE DEHYDROGENASE [3]: 312 u/L | LIPASE [3]: 10 u/L | PHOSPHORUS [3]: 15.03 mg/dL | POTASSIUM [3]: 7.11 MEQ/L | SODIUM [3]: 147.4 MEQ/L | TOTAL BILIRUBIN [3]: 0.2 mg/dL | TOTAL PROTEIN [3]: 5.83 G/DL | URIC ACID [3]: 2.3 mg/dL
